Converted amounts (≈) assume the structure as drawn. Where two headings read alike, the source gives them in different places.
Legend:
Test in all cases: MIC, broth microdilution
E. coli GC 3226 = conditions: Escherichia coli
S. aureus GC 6467 = conditions: Staphylococcus aureus
E. coli GC 4560 = conditions: Escherichia coli
S. aureus GC 6335 = conditions: Staphylococcus aureus
E. faecalis GC 2267 = conditions: Enterococcus faecalis
E. coli GC 2271 = conditions: Escherichia coli
S. aureus GC 1079 = conditions: Staphylococcus aureus
S. aureus GC 6469 = conditions: Staphylococcus aureus
E. coli GC 6465 = conditions: Escherichia coli
E. coli GC 1073 = conditions: Escherichia coli
E. coli GC 2203 = conditions: Escherichia coli
c. albicans GC 3066 = test system: c. albicans GC 3066
S. epidermidis GC 4935 = conditions: Staphylococcus epidermidis
E. coli GC 2270 = conditions: Escherichia coli
S. aureus GC 1131 = conditions: Staphylococcus aureus
E. coli GC 2272 = conditions: Escherichia coli
E. coli GC 2233 = conditions: Escherichia coli
E. faecalis GC 2265 = conditions: Enterococcus faecalis
P. aeruginosa GC 2214 = conditions: Pseudomonas aeruginosa
E. faecium GC 2243 = conditions: Enterococcus faecium

MIC (E. coli GC 3226; GC3226, read-out: MINIMAL INHIBITORY CONCENTRATION MIC, Human Serum): 16 µg/mL (≈ 21.5 µM)
MIC (E. coli GC 3226; GC3226, read-out: MINIMAL INHIBITORY CONCENTRATION MIC, Mouse Serum): 1 µg/mL (≈ 1.34 µM)
MIC (E. coli GC 3226; GC3226, read-out: MINIMAL INHIBITORY CONCENTRATION MIC, Water): 32 µg/mL (≈ 43 µM)
MIC (S. aureus GC 6467; GC6467, read-out: MINIMAL INHIBITORY CONCENTRATION MIC, Human Serum): 1 µg/mL (≈ 1.34 µM)
MIC (S. aureus GC 6467; GC6467, read-out: MINIMAL INHIBITORY CONCENTRATION MIC, Mouse Serum): 1 µg/mL (≈ 1.34 µM)
MIC (S. aureus GC 6467; GC6467, read-out: MINIMAL INHIBITORY CONCENTRATION MIC, Water): 2 µg/mL (≈ 2.69 µM)
MIC (E. coli GC 4560; GC4560, read-out: MINIMAL INHIBITORY CONCENTRATION MIC, Human Serum): 2 µg/mL (≈ 2.69 µM)
MIC (E. coli GC 4560; GC4560, read-out: MINIMAL INHIBITORY CONCENTRATION MIC, Mouse Serum): 0.5 µg/mL (≈ 0.672 µM)
MIC (E. coli GC 4560; GC4560, read-out: MINIMAL INHIBITORY CONCENTRATION MIC, Water): 2 µg/mL (≈ 2.69 µM)
MIC (S. aureus GC 6335; GC6335, read-out: MINIMAL INHIBITORY CONCENTRATION MIC, Human Serum): 0.5 µg/mL (≈ 0.672 µM)
MIC (S. aureus GC 6335; GC6335, read-out: MINIMAL INHIBITORY CONCENTRATION MIC, Mouse Serum): 0.5 µg/mL (≈ 0.672 µM)
MIC (S. aureus GC 6335; GC6335, read-out: MINIMAL INHIBITORY CONCENTRATION MIC, Water): 1 µg/mL (≈ 1.34 µM)
MIC (E. faecalis GC 2267; GC2267, read-out: MINIMAL INHIBITORY CONCENTRATION MIC, Human Serum): 2 µg/mL (≈ 2.69 µM)
MIC (E. faecalis GC 2267; GC2267, read-out: MINIMAL INHIBITORY CONCENTRATION MIC, Mouse Serum): 0.5 µg/mL (≈ 0.672 µM)
MIC (E. faecalis GC 2267; GC2267, read-out: MINIMAL INHIBITORY CONCENTRATION MIC, Water): 4 µg/mL (≈ 5.38 µM)
MIC (E. coli GC 2271; GC2271, read-out: MINIMAL INHIBITORY CONCENTRATION MIC, Human Serum): 8 µg/mL (≈ 10.8 µM)
MIC (E. coli GC 2271; GC2271, read-out: MINIMAL INHIBITORY CONCENTRATION MIC, Mouse Serum): 0.5 µg/mL (≈ 0.672 µM)
MIC (E. coli GC 2271; GC2271, read-out: MINIMAL INHIBITORY CONCENTRATION MIC, Water): 16 µg/mL (≈ 21.5 µM)
MIC (S. aureus GC 1079; GC1079, read-out: MINIMAL INHIBITORY CONCENTRATION MIC, Human Serum): 0.5 µg/mL (≈ 0.672 µM)
MIC (S. aureus GC 1079; GC1079, read-out: MINIMAL INHIBITORY CONCENTRATION MIC, Mouse Serum): 0.5 µg/mL (≈ 0.672 µM)
MIC (S. aureus GC 1079; GC1079, read-out: MINIMAL INHIBITORY CONCENTRATION MIC, Water): 1 µg/mL (≈ 1.34 µM)
MIC (S. aureus GC 6469; GC6469, read-out: MINIMAL INHIBITORY CONCENTRATION MIC, Human Serum): 1 µg/mL (≈ 1.34 µM)
MIC (S. aureus GC 6469; GC6469, read-out: MINIMAL INHIBITORY CONCENTRATION MIC, Mouse Serum): 1 µg/mL (≈ 1.34 µM)
MIC (S. aureus GC 6469; GC6469, read-out: MINIMAL INHIBITORY CONCENTRATION MIC, Water): 2 µg/mL (≈ 2.69 µM)
MIC (E. coli GC 6465; GC6465, read-out: MINIMAL INHIBITORY CONCENTRATION MIC, Human Serum): 32 µg/mL (≈ 43 µM)
MIC (E. coli GC 6465; GC6465, read-out: MINIMAL INHIBITORY CONCENTRATION MIC, Mouse Serum): 4 µg/mL (≈ 5.38 µM)
MIC (E. coli GC 6465; GC6465, read-out: MINIMAL INHIBITORY CONCENTRATION MIC, Water): > 64 µg/mL
MIC (E. coli GC 1073; GC1073, read-out: MINIMAL INHIBITORY CONCENTRATION MIC, Human Serum): 16 µg/mL (≈ 21.5 µM)
MIC (E. coli GC 1073; GC1073, read-out: MINIMAL INHIBITORY CONCENTRATION MIC, Mouse Serum): 1 µg/mL (≈ 1.34 µM)
MIC (E. coli GC 1073; GC1073, read-out: MINIMAL INHIBITORY CONCENTRATION MIC, Water): 32 µg/mL (≈ 43 µM)
MIC (E. coli GC 2203; GC2203, read-out: MINIMAL INHIBITORY CONCENTRATION MIC, Human Serum): 16 µg/mL (≈ 21.5 µM)
MIC (E. coli GC 2203; GC2203, read-out: MINIMAL INHIBITORY CONCENTRATION MIC, Mouse Serum): 1 µg/mL (≈ 1.34 µM)
MIC (E. coli GC 2203; GC2203, read-out: MINIMAL INHIBITORY CONCENTRATION MIC, Water): 32 µg/mL (≈ 43 µM)
MIC (c. albicans GC 3066; Candida albicans, GC3066, read-out: MINIMAL INHIBITORY CONCENTRATION MIC): > 64 µg/mL
MINIMAL INHIBITORY CONCENTRATION MIC (c. albicans GC 3066; Human Serum): >64 UG/ML
MINIMAL INHIBITORY CONCENTRATION MIC (c. albicans GC 3066; Mouse Serum): >64 UG/ML
MIC (S. epidermidis GC 4935; GC4935, read-out: MINIMAL INHIBITORY CONCENTRATION MIC, Human Serum): 2 µg/mL (≈ 2.69 µM)
MIC (S. epidermidis GC 4935; GC4935, read-out: MINIMAL INHIBITORY CONCENTRATION MIC, Mouse Serum): 1 µg/mL (≈ 1.34 µM)
MIC (S. epidermidis GC 4935; GC4935, read-out: MINIMAL INHIBITORY CONCENTRATION MIC, Water): 2 µg/mL (≈ 2.69 µM)
MIC (E. coli GC 2270; GC2270, read-out: MINIMAL INHIBITORY CONCENTRATION MIC, Human Serum): 8 µg/mL (≈ 10.8 µM)
MIC (E. coli GC 2270; GC2270, read-out: MINIMAL INHIBITORY CONCENTRATION MIC, Mouse Serum): 1 µg/mL (≈ 1.34 µM)
MIC (E. coli GC 2270; GC2270, read-out: MINIMAL INHIBITORY CONCENTRATION MIC, Water): 32 µg/mL (≈ 43 µM)
MIC (S. aureus GC 1131; GC1131, read-out: MINIMAL INHIBITORY CONCENTRATION MIC, Human Serum): 1 µg/mL (≈ 1.34 µM)
MIC (S. aureus GC 1131; GC1131, read-out: MINIMAL INHIBITORY CONCENTRATION MIC, Mouse Serum): 1 µg/mL (≈ 1.34 µM)
MIC (S. aureus GC 1131; GC1131, read-out: MINIMAL INHIBITORY CONCENTRATION MIC, Water): 1 µg/mL (≈ 1.34 µM)
MIC (E. coli GC 2272; GC2272, read-out: MINIMAL INHIBITORY CONCENTRATION MIC, Human Serum): 8 µg/mL (≈ 10.8 µM)
MIC (E. coli GC 2272; GC2272, read-out: MINIMAL INHIBITORY CONCENTRATION MIC, Mouse Serum): 0.25 µg/mL (≈ 0.336 µM)
MIC (E. coli GC 2272; GC2272, read-out: MINIMAL INHIBITORY CONCENTRATION MIC, Water): 16 µg/mL (≈ 21.5 µM)
MIC (E. coli GC 2233; GC2233, read-out: MINIMAL INHIBITORY CONCENTRATION MIC, Human Serum): 16 µg/mL (≈ 21.5 µM)
MIC (E. coli GC 2233; GC2233, read-out: MINIMAL INHIBITORY CONCENTRATION MIC, Mouse Serum): 1 µg/mL (≈ 1.34 µM)
MIC (E. coli GC 2233; GC2233, read-out: MINIMAL INHIBITORY CONCENTRATION MIC, Water): 32 µg/mL (≈ 43 µM)
MIC (E. faecalis GC 2265; GC2265, read-out: MINIMAL INHIBITORY CONCENTRATION MIC, Human Serum): 0.5 µg/mL (≈ 0.672 µM)
MIC (E. faecalis GC 2265; GC2265, read-out: MINIMAL INHIBITORY CONCENTRATION MIC, Mouse Serum): 1 µg/mL (≈ 1.34 µM)
MIC (E. faecalis GC 2265; GC2265, read-out: MINIMAL INHIBITORY CONCENTRATION MIC, Water): 4 µg/mL (≈ 5.38 µM)
MIC (P. aeruginosa GC 2214; GC2214, read-out: MINIMAL INHIBITORY CONCENTRATION MIC, Human Serum): > 64 µg/mL
MIC (P. aeruginosa GC 2214; GC2214, read-out: MINIMAL INHIBITORY CONCENTRATION MIC, Mouse Serum): 64 µg/mL (≈ 86 µM)
MIC (P. aeruginosa GC 2214; GC2214, read-out: MINIMAL INHIBITORY CONCENTRATION MIC, Water): > 64 µg/mL
MIC (E. faecium GC 2243; GC2243, read-out: MINIMAL INHIBITORY CONCENTRATION MIC, Human Serum): 0.25 µg/mL (≈ 0.336 µM)
MIC (E. faecium GC 2243; GC2243, read-out: MINIMAL INHIBITORY CONCENTRATION MIC, Mouse Serum): 0.25 µg/mL (≈ 0.336 µM)
MIC (E. faecium GC 2243; GC2243, read-out: MINIMAL INHIBITORY CONCENTRATION MIC, Water): 0.5 µg/mL (≈ 0.672 µM)
SMILES: CC(C)CC(=O)OCOC(=O)N(CC(=O)Nc1cc(N(C)C)c2c(c1O)C(=O)C1=C(O)[C@]3(O)C(=O)C(C(N)=O)=C(O)[C@@H](N(C)C)[C@@H]3C[C@@H]1C2)C(C)(C)C [Example 53, ({[(2-{[(5aR,6aS,7S,10aS)-9-(aminocarbonyl)-4,7-bis(dimethylamino)-1,8,10a,11-tetrahydroxy-10,12-dioxo-5,5a,6,6a,7,10,10a,12-octahydrotetracen-2-yl]amino}-2-oxoethyl)(tert-butyl)amino]carbonyl}oxy)methyl 3-methylbutanoate]

Reference: patent publication US20070049564A1 (Wyeth, priority 2005, published 2007)
